Values joined by “and” are separate entries in the source; they are usually repeats but may differ in a detail not shown here. Identical values can stand only once.
What was measured:
[1] = Emitted dose studies with dry powder inhalers; type: physicochemical; settings: for Emitted Dose: single runs
Procedure: DHEA-S powder was collected in Nephele tubes and assayed by HPLC. Triplicate experiments were performed at each airflow rate for each of the three dry powder inhalers tested (Rotahaler, Diskhaler and IDL's DPI devices). A Nephele tube was fitted at one end with a glass filter (Gelman Sciences, Type A/E, […]), which in turn was connected to the airflow line to collect the emitted dose of the drug from the respective dry powder inhaler being tested. A silicone adapter, with an opening to receive the mouthpiece of the respective dry powder inhaler being tested at the other end of the Nephele tube was secured. A desired airflow, of 30, 60, or 90 L/min, was achieved through the Nephele tube. Each dry powder inhaler's mouthpiece was inserted then into the silicone rubber adapter, and the airflow was continued for about four s after which the tube was removed and an end-cap screwed onto the end of each tube. The end-cap of the tube not containing the filter was removed and 10 ml of an HPLC grade water-acetonitrile solution (1:1) added to the tube, the end-cap reattached, and the tube shaken for 1-2 minutes. The end-cap then was removed from the tube and the solution was transferred to a 10 ml plastic syringe fitted with a filter (Cameo 13N Syringe Filter, Nylon, 0.22 μm). An aliquot of the solution was directly filtered into an HPLC vial for later drug assay via HPLC. […] When the micronized DHEA-S (only vial B used), was weighed for placement into the gelatin capsule or blister, there appeared to be a few aggregates of the micronized powder. […] Table 2 summarizes the results for the Rotahaler experiments at 3 different flow rates, for the Diskhaler experiments at 3 different flow rates, and of the multi-dose experiments at 3 different flow rates.

[2] = Particle size of DHEA-S powders (laser diffraction, light microscope); type: physicochemical; settings: for mean particle size: spray dried, two batches
Procedure: Approximately 1 g sample was passed through the jet mill, once, and approximately 2 g sample were passed through the jet mill twice. […] The resulting solution was sonicated for 3 minutes and appeared fully dispersed. The dispersed solutions were tested on a Malvern Mastersizer X with a small volume sampler (SVS) attachment. One sample of dispersed material was tested 5 times. The median particle size or D (v, 0.5) of unmilled material was 52.56 μm and the % RSD (relative standard deviation) was 7.61 for the 5 values. The D (v, 0.5) for a single pass through the jet mill was 3.90 μm and the % RSD was 1.27, and the D (v, 0.5) from a double pass through the jet mill 3.25 μm and the % RSD was 3.10.
The solution was spray-dried with a B-191 Mini Spray-Drier (Buchi, Flawil, Switzerland) with an inlet temperature of 55° C., outlet temperature of 40° C., at 100% aspirator, at 10% pump, nitrogen flow at 40 mbar and spray flow at 600 units. The spray-dried product was suspended in hexane and Span85 surfactant added to reduce agglomeration. The dispersions were sonicated with cooling for 3-5 minutes for complete dispersion and the dispersed solutions tested on a Malvern Mastersizer X with a Small Volume Sampler (SVS) attachment. […] Visual examination by light microscope of the dispersions of each batch confirmed that spray drying produced small respirable size particles. The mean particle size was 2.4 μm and 2.0 μm for each batch, respectively.
Surface area is determined using five point BET analyses are performed with nitrogen as the adsorbing gas (P/Po=0.05 to 0.30) using a Micromeritics TriStar surface area analyzer. Particle size distributions are measured by laser diffraction using a Micromeritics Saturn Digisizer where the particles are suspended in mineral oil th sodium dioctyl sodium sulfosuccinate as a dispersing agent. Drug substance water content is measured by Karl Fischer titration (Schott Titroline KF). Pure water is used as the standard and all relative standard deviations for triplicates are less than 1%. Powder is added directly to the titration media.

[3] = Diskhaler (2nd study), 87.8 L/min
[4] = IDL Multi-Dose (2nd study), 87.8 L/min

C[C@]12CC[C@H](OS(=O)(=O)[O-])CC1=CC[C@@H]1[C@@H]2CC[C@]2(C)C(=O)CC[C@@H]12.[Na+] [Anhydrous DHEA-S]
Emitted Dose, Average [1, 3]: 59.1% | Emitted Dose [1, 3]: 57.9% and 59.9% and 59.5% | Emitted Dose, Average ([1]; Diskhaler, 30 L/min): 58.6% | Emitted Dose ([1]; Diskhaler, 30 L/min): 53.8% and 53.4% and 68.7% | Emitted Dose, Average ([1]; Diskhaler, 60 L/min): 68.2% | Emitted Dose ([1]; Diskhaler, 60 L/min): 63.4% and 38.9% and 58.0% | Emitted Dose, Average ([1]; Diskhaler, 87.8 L/min): 51.3% | Emitted Dose ([1]; Diskhaler, 87.8 L/min): 65.7% and 41.6% and 46.5% | Emitted Dose, Average [1, 4]: 84.8% | Emitted Dose [1, 4]: 85.7% and 84.6% and 84.0% | Emitted Dose, Average ([1]; IDL Multi-Dose, 30 L/min): 85.4% | Emitted Dose ([1]; IDL Multi-Dose, 30 L/min): 78.9% and 88.2% and 89.2% | Emitted Dose, Average ([1]; IDL Multi-Dose, 60 L/min): 84.0% | Emitted Dose ([1]; IDL Multi-Dose, 60 L/min): 78.8% and 83.7% and 89.6% | Emitted Dose, Average ([1]; IDL Multi-Dose, 87.8 L/min): 72.6% | Emitted Dose ([1]; IDL Multi-Dose, 87.8 L/min): 71.3% and 79.0% and 67.4% | Emitted Dose, Average ([1]; Rotahaler (2nd study), 87.8 L/min): 31.5% | Emitted Dose, Average ([1]; Rotahaler, 30 L/min): 34.7% | Emitted Dose, Average ([1]; Rotahaler, 60 L/min): 57.3% | Emitted Dose ([1]; Rotahaler, 60 L/min): 58.1% and 68.2% and 45.7% | Emitted Dose, Average ([1]; Rotahaler, 87.8 L/min): 69.7% | Emitted Dose ([1]; Rotahaler, 87.8 L/min): 73.2% and 67.1% and 68.7% | median particle size D (v, 0.5) ([2]; double pass through the jet mill): 3.25 μm | median particle size D (v, 0.5) ([2]; single pass through the jet mill): 3.90 μm | mean particle size ([2]; Malvern Mastersizer X): 5.07±0.70 μm and 6.66±0.91 μm | mean particle size ([2]; visual examination by light microscope): 2.4 μm and 2.0 μm | median particle size D (v, 0.5) ([2]; unmilled material, Malvern Mastersizer X): 52.56 μm

From patent US20050113318A1, “Combination of dehydroepiandrosterone or dehydroepiandrosterone-sulfate with a beta-agonist bronchodilator for treatment of asthma or chronic obstructive pulmonary disease” (priority 2003, published 2005)
